Test results from publication PMC6934184, “Selective DNA-PKcs inhibition extends the therapeutic index of localized radiotherapy and chemotherapy” (The Journal of Clinical Investigation, 2019).

Molecular target: T1, ACVR2B (Homo sapiens, UniProt Q13705)
T1 construct: purchased Thermo Fisher Scientific (Life Technologies) SelectScreen
Assay: SelectScreen LanthaScreen
Type: binding
Settings: 1 µM
Outline: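 NU5455 was profiled across the SelectScreen Broad panel of kinase activity and binding assays. Z'LYTE reactions such as CSF1R ran at apparent Km ATP, while the Adapta CAMK1 assay used ATP listed as 10. Values are given as percent.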

T1 sequence (Q13705 19-512): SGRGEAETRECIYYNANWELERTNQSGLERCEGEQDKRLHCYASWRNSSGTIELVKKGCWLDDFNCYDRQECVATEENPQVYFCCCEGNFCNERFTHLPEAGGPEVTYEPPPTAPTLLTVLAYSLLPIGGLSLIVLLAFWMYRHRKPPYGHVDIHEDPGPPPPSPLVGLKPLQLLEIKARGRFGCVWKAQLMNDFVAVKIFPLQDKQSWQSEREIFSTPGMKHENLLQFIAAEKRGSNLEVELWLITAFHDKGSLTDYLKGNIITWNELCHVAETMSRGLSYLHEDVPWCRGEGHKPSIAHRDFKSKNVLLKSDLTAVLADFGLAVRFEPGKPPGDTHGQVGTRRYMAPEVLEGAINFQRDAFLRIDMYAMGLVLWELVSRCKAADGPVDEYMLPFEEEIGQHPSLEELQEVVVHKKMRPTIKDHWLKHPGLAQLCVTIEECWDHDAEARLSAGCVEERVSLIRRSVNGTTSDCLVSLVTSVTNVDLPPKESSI

Question: With `CN(C(=O)CN1CCOCC1)c1ccc2sc3c(-c4cccc5c(=O)cc(N6CC7CCC(C6)O7)oc45)cccc3c2c1` [NU5455] as the molecule, how does the “% displacement” value read?
Answer: Its value is 15.7%.
